The test system of the experiment is Tunicamycin induced ISR (ATF4 signal ratio between nucleus and cytoplasm) in wild-type HEK293 cells. The experiment in a line: HEK-ATF4 High Content Imaging assay. Type of experiment: cell-based. The settings on record: Homo sapiens, prevention of Tunicamycin induced ISR, 6 h incubation, ATF4 immunofluorescence nucleus/cytoplasm ratio. How it is done:
HEK-ATF4 High Content Imaging Assay
Example compounds were tested in the HEK-ATF4 High Content Imaging assay to assess their pharmacological potency to prevent Tunicamycin induced ISR. Wild-type HEK293 cells were plated in 384-well imaging assay plates at a density of 12,000 cells per well in growth medium (containing DMEM/F12, 10% FBS, 2 mM L-Glutamine, 100 U/mL Penicillin—100 μg/mL Streptomycin) and incubated at 37° C., 5% CO2. 24 h later, the medium was changed to 50 μL assay medium per well (DMEM/F12, 0.3% FBS, 2 mM L-Glutamine, 100 U/mL Penicillin—100 μg/mL Streptomycin). Example compounds were serially diluted in DMSO, spotted into intermediate plates and prediluted with assay medium containing 3.3 μM Tunicamycin to give an 11-fold excess of final assay concentration. In addition to the example compound testing area, the plates also contained multiples of control wells for assay normalization purposes, wells containing Tunicamycin but no example compounds (High control), as well as wells containing neither example compound nor Tunicamycin (Low control). The assay was started by transferring 5 μL from the intermediate plate into the assay plates, followed by incubation for 6 h at 37° C., 5% CO2. Subsequently, cells were fixed (4% PFA in PBS, 20 min at r.t.) and submitted to indirect ATF4 immunofluorescence staining (primary antibody rabbit anti ATF4, clone D4B8, Cell Signaling Technologies; secondary antibody Alexa Fluor 488 goat anti-rabbit IgG (H+L), Thermofisher Scientific). Nuclei were stained using Hoechst dye (Thermofisher Scientific), and plates were imaged on an Opera Phenix High Content imaging platform equipped with 405 nm and 488 nm excitation. Finally, images were analyzed using script based algorithms. The main readout HEK-ATF4 monitored the ATF4 signal ratio between nucleus and cytoplasm. Tunicamycin induced an increase in the overall ATF4 ratio signal, which was prevented by ISR modulating example compounds. In addition, HEK-CellCount readout was derived from counting the number of stained nuclei corresponding to healthy cells. This readout served as an internal toxicity control.
One may read the IC50 as the concentration needed to halve the response being measured. As to `Cc1cc(C(=O)N[C@H]2CC[C@H](c3nnc(OCCOC(F)(F)F)o3)NC2)ccc1Cl` [Example 31, 4-chloro-3-methyl-N-[(3S,6R)-6-{5-[2-(trifluoromethoxy)ethoxy]-1,3,4-oxadiazol-2-yl}piperidin-3-yl]benzamide], the IC50 lay in the range of 2 to 15 µM.

Take `O=C(N[C@H]1CC[C@H](c2nnc(OCCOC(F)(F)F)o2)NC1)c1cc(F)c(Cl)c(F)c1` [Example 32, 4-chloro-3,5-difluoro-N-[(3S,6R)-6-{5-[2-(trifluoromethoxy)ethoxy]-1,3,4-oxadiazol-2-yl}piperidin-3-yl]benzamide]: the IC50 was 2 to 15 µM.

Turning to `O=C(N[C@H]1CC[C@H](c2nnc(OCCOC(F)(F)F)o2)NC1)c1ccc(C(F)(F)F)c(F)c1` [Example 33, 3-fluoro-N-[(3S,6R)-6-{5-[2-(trifluoromethoxy)ethoxy]-1,3,4-oxadiazol-2-yl}piperidin-3-yl]-4-(trifluoromethyl)benzamide], the IC50 fell in the range of 0.5 to 2 µM.

Consider `O=C(N[C@H]1CC[C@H](c2nnc(OCCOC(F)(F)F)o2)NC1)c1ccc(OC(F)(F)F)c(Cl)c1` [Example 34, 3-chloro-4-(trifluoromethoxy)-N-[(3S,6R)-6-{5-[2-(trifluoromethoxy)ethoxy]-1,3,4-oxadiazol-2-yl}piperidin-3-yl]benzamide], for which the IC50 was 0.5 to 2 µM.

Consider `O=C(N[C@H]1CC[C@H](c2nnc(OCCOC(F)(F)F)o2)NC1)c1ccc(F)c(C(F)(F)F)c1` [Example 35, 4-fluoro-N-[(3S,6R)-6-{5-[2-(trifluoromethoxy)ethoxy]-1,3,4-oxadiazol-2-yl}piperidin-3-yl]-3-(trifluoromethyl)benzamide], for which the IC50 is 2 to 15 µM.

For the compound `O=C(N[C@H]1CC[C@H](c2nnc(OCCOC(F)(F)F)o2)NC1)c1ccc(C(F)(F)F)c(Cl)c1` [Example 36, 3-chloro-N-[(3S,6R)-6-{5-[2-(trifluoromethoxy)ethoxy]-1,3,4-oxadiazol-2-yl}piperidin-3-yl]-4-(trifluoromethyl)benzamide], the IC50 lay in the range of 2 to 15 µM.

On to `O=C(N[C@H]1CC[C@H](c2nnc(OCCOC(F)(F)F)o2)NC1)c1ccc(Cl)c(C(F)(F)F)c1` [Example 37, 4-chloro-N-[(3S,6R)-6-{5-[2-(trifluoromethoxy)ethoxy]-1,3,4-oxadiazol-2-yl}piperidin-3-yl]-3-(trifluoromethyl)benzamide], for which the IC50 lay within 2 to 15 µM.

`O=C(N[C@H]1CC[C@H](c2nnc(OCCOC(F)(F)F)o2)NC1)c1cc(Cl)c(Cl)cn1` [Example 38, 4,5-dichloro-N-[(3S,6R)-6-{5-[2-(trifluoromethoxy)ethoxy]-1,3,4-oxadiazol-2-yl}piperidin-3-yl]pyridine-2-carboxamide]: the IC50 lay in the range of 2 to 15 µM.

As for `O=C(N[C@H]1CC[C@H](c2nnc(OCCOC(F)(F)F)o2)NC1)c1ccc(Cl)c(Cl)n1` [Example 39, 5,6-dichloro-N-[(3S,6R)-6-{5-[2-(trifluoromethoxy)ethoxy]-1,3,4-oxadiazol-2-yl}piperidin-3-yl]pyridine-2-carboxamide], the IC50 was 2 to 15 µM.

`O=C(N[C@H]1CC[C@H](c2nnc(OCCOC(F)(F)F)o2)NC1)c1ccc(Cl)c(OC(F)(F)F)c1` [Example 40, 4-chloro-3-(trifluoromethoxy)-N-[(3S,6R)-6-{5-[2-(trifluoromethoxy)ethoxy]-1,3,4-oxadiazol-2-yl}piperidin-3-yl]benzamide]: the IC50 was 2 to 15 µM.

`Cn1c(C(=O)N[C@H]2CC[C@H](c3nnc(OCCOC(F)(F)F)o3)NC2)cc2ccc(C(F)(F)F)cc21` [Example 42, 1-methyl-N-[(3S,6R)-6-[5-[2-(trifluoromethoxy)ethoxy]-1,3,4-oxadiazol-2-yl]-3-piperidyl]-6-(trifluoromethyl)indole-2-carboxamide]: the IC50 was in the range of 0.5 to 2 µM.

Turning to `Cc1ccc(C(=O)N[C@H]2CC[C@H](c3nnc(OCCOC(F)(F)F)o3)NC2)cc1Cl` [Example 44, 3-chloro-4-methyl-N-[(3S,6R)-6-[5-[2-(trifluoromethoxy)ethoxy]-1,3,4-oxadiazol-2-yl]-3-piperidyl]benzamide], the IC50 lay in the range of 0.5 to 2 µM.

Regarding `O=C(N[C@H]1CC[C@H](c2nnc(-c3ccc(Cl)cc3)o2)NC1)c1cnc2cc(Cl)ccc2c1` [Example 46, 7-chloro-N-[(3S,6R)-6-[5-(4-chlorophenyl)-1,3,4-oxadiazol-2-yl]-3-piperidyl]quinoline-3-carboxamide], the IC50 lay within 0.001 to 0.5 µM.

On to `O=C(N[C@H]1CC[C@H](c2nnc(OC/C=C/C(F)(F)F)o2)NC1)c1cnc2cc(Cl)ccc2c1` [Example 48, 7-chloro-N-[(3S,6R)-6-[5-[(E)-4,4,4-trifluorobut-2-enoxy]-1,3,4-oxadiazol-2-yl]-3-piperidyl]quinoline-3-carboxamide], for which the IC50 lay within 0.001 to 0.5 µM.

Turning to `O=C(N[C@@H]1CC[C@@H](c2nnc(OCCOC(F)(F)F)o2)NC1)c1cnc2cc(Cl)ccc2c1` [Example 49, 7-chloro-N-[(3R,6S)-6-[5-[2-(trifluoromethoxy)ethoxy]-1,3,4-oxadiazol-2-yl]-3-piperidyl]quinoline-3-carboxamide], the IC50 is 0.001 to 0.5 µM.

For `O=C(N[C@H]1CC[C@H](c2nnc([C@H]3C[C@@H](OC(F)(F)F)C3)o2)NC1)c1cnc2cc(Cl)ccc2c1` [Example 51, 7-chloro-N-[(3S,6R)-6-{5-[(1s,3s)-3-(trifluoromethoxy)cyclobutyl]-1,3,4-oxadiazol-2-yl}piperidin-3-yl]quinoline-3-carboxamide], the IC50 is 0.001 to 0.5 µM.

In the case of `O=C(N[C@@H]1CC[C@@H](c2nnc([C@H]3C[C@@H](OC(F)(F)F)C3)o2)NC1)c1cnc2cc(Cl)ccc2c1` [Example 52, 7-chloro-N-[(3R,6S)-6-{5-[(1s,3s)-3-(trifluoromethoxy)cyclobutyl]-1,3,4-oxadiazol-2-yl}piperidin-3-yl]quinoline-3-carboxamide], the concentration for half-maximal inhibition (IC50) was 0.001 to 0.5 µM.

`O=C(N[C@@H]1CC[C@@H](c2nnc(OCCOC(F)(F)F)o2)NC1)c1ccc(Cl)c(Cl)c1` [Example 54, 3,4-dichloro-N-[(3R,6S)-6-[5-[2-(trifluoromethoxy)ethoxy]-1,3,4-oxadiazol-2-yl]-3-piperidyl]benzamide]: the IC50 lay within 0.5 to 2 µM.

For `O=C(N[C@H]1CO[C@H](c2nnc(OCCOC(F)(F)F)o2)OC1)c1cnc2cc(Cl)ccc2c1` [Example 55, 7-chloro-N-[trans-2-{5-[2-(trifluoromethoxy)ethoxy]-1,3,4-oxadiazol-2-yl}-1,3-dioxan-5-yl]quinoline-3-carboxamide], the IC50 lay in the range of 0.001 to 0.5 µM.

Source of the values: patent publication US20230391763A1, “MODULATORS OF THE INTEGRATED STRESS RESPONSE PATHWAY” (Evotec International GmbH, priority 2020, published 2023).
